A value given as a limit tells only on which side of the number the result lay.

The melting point is the temperature of the solid-liquid transition.

`Cc1ccc(C2(Cn3cncn3)OCCO2)cc1Br` came in with a melting point of 121 °C. With `CCc1cccc(C)c1CNc1cc(C(=O)OC)cn2nc(C)nc12`, the melting point amounted to 140 °C. Next, `CCn1cc(C2CCC3(CC2)OCCO3)c2cc(C#N)ccc21`: 124 to 126 °C. `CC(=O)OC1CCC2(C)C(CCC3C4CCC(C(C)=O)C4(C)CC(=O)C32)C1` (centres undefined) had a melting point of 130 to 133 °C.

For the compound `O=C(Cn1cccc(NC(=O)OCc2ccccc2)c1=O)NC(Cc1ccccc1)C(=O)C(F)(F)F` (centres undefined), the melting point lay in the range of 113 to 117 °C. Next, `Cc1cc(S(N)(=O)=O)ccc1N1CN(c2ccccc2)CC1=O`: 206 to 210 °C. Next, `CCOC(=O)c1c(O)c2ccc(C)nc2n(Cc2ccccc2)c1=O`: 155 to 157 °C; `CC(C)(Cc1c(C(=O)c2ccccc2)c2cc(OCc3ccc4ccccc4n3)ccc2n1Cc1ccc(Cl)cc1)C(=O)O`: 165 to 166 °C; `CC1CC(c2ccc(CCCCN)cc2)=NNC1=O` (centres undefined): 118 to 120 °C. In the case of `COc1cc(C(C)(C)CNC(=O)c2cccc(Br)c2)cc2c1OC(C)(C)C2` it was 157 to 163 °C. Consider `Nc1cc(C(=O)Nc2ccccc2)ccc1F`, for which the melting point was in the range of 167 to 170 °C. Next, `CCOC(=O)c1c(-c2ccccc2)nc2ccccn12`: 68 °C. In the case of `CC(=O)c1cc([N+](=O)[O-])c(N)cc1C#N` it was 255 to 260 °C. As for `COC1NC(=O)C(OC)(OC)C1Cl` (centres undefined), the melting point was in the range of 141 to 142 °C.

Take `CC1CCC(C)C1C(=O)O` (centres undefined): the melting point stood at 45 °C. Next, `O=C(Nc1ccc2c(c1)CCC(CCl)=C2)c1ccc(-c2ccc(Cl)cc2)cc1`: 179 to 181 °C; `O=C(c1c(F)cccc1F)N1COCN(c2ccc(SC(F)(F)C(F)(F)C(F)(F)F)cc2F)C1=O`: 44 to 46 °C.

Take `Cc1c(-c2c[nH]c3c(-c4ccccc4)cccc23)nc2ccc(F)cc2c1C(=O)O`: the melting point was 148 to 150 °C. In turn, `O=[N+]([O-])C(=Cc1cccs1)C1=NCCN1Cc1ccc(Cl)nc1` had a melting point of 189 to 190 °C.

With `Cc1ccc(Sc2nc(F)c(C#N)cc2F)cc1`, the melting point lay in the range of 120 to 121 °C. `CCOC(=O)CSc1n[nH]c(=S)[nH]1` registered a melting point of 134 to 136 °C. In the case of `N#Cc1[nH]c(Br)c(Br)c1Br` it was 215 to 218 °C; in that of `CCc1nc2c(C)cc(C)nc2n1Cc1ccc(-c2ccccc2S(=O)(=O)Nc2onc(C)c2C)c(CN2CCC(C)(C)C2=O)c1`, 95 to 104 °C; in that of `COc1ccc(Cl)cc1C1(F)C(=O)Nc2ccc(F)cc21` (centres undefined), 205 to 207 °C. For `CSc1cc(CO)cc(S(N)(=O)=O)c1Cc1ccccc1`, the melting point fell in the range of 190 to 192 °C. Consider `Fc1cccc(Cn2ncc3cc(Nc4ncnc5cnc(F)cc45)ccc32)c1`, for which the melting point is 218 to 221 °C. Consider `CC(=O)OC[C@H]1O[C@@H]2[C@@H](Sc3ccc(Cl)cc3N2C)[C@@H](OC(C)=O)[C@@H]1OC(C)=O`, for which the melting point was in the range of 217 to 218 °C. Next, `Cn1ccc(-c2cc(OC(F)F)n(-c3ccc(NC(=O)c4ccncc4F)cc3)n2)c1`: 135 to 136 °C; `NC(=S)N1CCN(c2ccccc2)CC1`: 178 to 179 °C. In the case of `COc1ccc(S(=O)(=O)N(CCC(F)=C(F)F)c2ccccc2/C=C/c2ccncc2)cc1` it was 148 to 149 °C; in that of `CCOc1nn(Cc2ccc(OCc3nc(-c4ccccc4)oc3C)cc2)cc1CC(=O)O`, 125 to 126 °C; in that of `CCOc1c(OC)cccc1-c1nc2ccc(C(=O)O)cc2c(=O)[nH]1`, 168 to 169 °C. For `O=C(c1ccccc1)c1cc2cc(Cl)ncc2[nH]1`, the melting point was in the range of 194 to 197 °C. In the case of `O=C(O)c1ccc(COc2cccc(-c3c(-c4ccccc4)cnc4c(C(F)(F)F)cccc34)c2)cc1` it was 108 to 112 °C; in that of `O=c1[nH]c(-c2c[nH]c3ccccc23)nc2ccc(N3CCCCC3)cc12`, over 300 °C. Next, `CCOC(=O)C(=CNNc1c(Cl)cc(C(F)(F)F)cc1Cl)C(=O)OCC`: 86 °C; `CC(=O)Nc1cccc(-n2ccnc2C)c1`: 238 to 240 °C.

`COc1ccc(-c2coc3cc(OCC(O)CN4CCNCC4)ccc3c2=O)cc1OC` (centres undefined) yielded a melting point of 84 to 85 °C. In the case of `NS(=O)(=O)c1ccccc1C1CO1` (centres undefined) it was 136 to 139 °C; in that of `CC(C#N)(CO)NS(=O)(=O)Cc1ccccc1` (centres undefined), 153 to 155 °C; in that of `Fc1ccc(-c2csc(-c3cn([C@H]4CN5CCC4CC5)nn3)c2)cn1`, 136 °C. Next, `COc1cc2oc(=O)c(CCOS(C)(=O)=O)c(C)c2c(OC)c1OC`: 114 to 115 °C; `CCN1C(=O)c2cccnc2N(CC)c2ncccc21`: 102 to 103 °C. Turning to `COc1ccc2c(c1)c1c(n2C(=O)c2ccc(Cl)cc2)CCCC1C(=O)O` (centres undefined), the melting point is 181 to 185 °C.

`CN1C(=O)CCC2(C)c3ccc(Sc4cccc5cccnc45)cc3CCC12` (centres undefined) registered a melting point of 241 to 242 °C. Next, `CN1CCC2(CC1)NCc1cc(C(C)(C)C)cc(I)c1O2`: 155 to 156 °C; `CNN(Cc1ccccc1N)c1ccccc1`: 57 to 59 °C; `COc1cc(C(O)CN(c2nc3ccccc3[nH]2)C(C)CCn2cnc3ccccc32)ccc1OCc1ccccc1` (centres undefined): 170 to 180 °C.

For the compound `O=c1[nH]c(-c2cc(C(F)(F)F)cc(C(F)(F)F)c2)nn1-c1cc(Cl)ccc1O`, the melting point is 235 to 236 °C. In the case of `CCCCc1nc(C(C)(C)O)c(C(=O)OCC)n1Cc1ccc(-c2ccccc2C(=O)OC(C)(C)C)cc1` it was 92 to 93 °C; in that of `c1ccc(NN2CCc3ccccc3C2)nc1`, 116 to 117 °C. The compound `COc1cc2c(cc1OC)[C@@H](c1ccc([N+](=O)[O-])cc1)NN(C1=NCCS1)[C@@H](C)C2` gave a melting point of 206 to 212 °C. Next, `O=[N+]([O-])c1ccc2nc3c4ccccc4c4ccccc4c3nc2c1`: 253 to 255 °C; `CCCCOC(=O)c1ccc(N2CCN(S(C)(=O)=O)CC2)cc1`: 145 to 150 °C; `COCCOc1nn2c(-c3ccc(OC)cc3)nnc2c2ccccc12`: 174 to 176 °C. In the case of `CCOC(=O)C(N=Nc1ccc(Br)cc1C(=O)c1ccccn1)NC(=O)CCl` (centres undefined) it was 160 to 162 °C; in that of `Cc1ccc2c(c1)c(=O)c1c(cnn1C)n2CCCNS(C)(=O)=O`, 179 °C; in that of `Cn1nc2ccc(S)nn2c1=O`, over 280 °C. Next, `CN1CC(c2ccc(S(C)(=O)=O)cc2)=C(c2ccc(Br)cc2)C1=O`: 161 to 163 °C; `Cc1ccc(C)c(SCCCC(=O)O)c1`: 61 to 62 °C.

Compound `Oc1cccc2c1CC(n1cc[nH]c1=S)CC2` (centres undefined) registered a melting point of 274 to 276 °C. The compound `CCCc1ccnc2c(=O)[nH]c(-c3cc(S(=O)(=O)NCCN4CCOCC4)ccc3OCC)nc12` gave a melting point of 165 to 166 °C. Next, `CN(C)c1ccnc(N(C)C2CCN(CCCC(c3ccc(F)cc3)c3ccc(F)cc3)CC2)n1`: 106 °C. In the case of `CCN(CC)CCn1c(O)nc2cc(Cl)c(Cl)nc21` it was 137 to 139 °C; in that of `CCc1ccc(C2CCC(c3ccc(Oc4ccc([N+](=O)[O-])cc4)cc3)(c3ccc(Oc4ccc([N+](=O)[O-])cc4)cc3)CC2)cc1`, 204 to 205 °C; in that of `Cc1c(-c2ccc([N+](=O)[O-])cc2)sc2c1c(=O)n(-c1ccccc1)c(=O)n2Cc1c(F)cccc1F`, 280 to 282 °C. In the case of `Cc1ccccc1NC(=O)/C=C/C=C/CC1CCc2c(cccc2C(F)(F)F)C1` (centres undefined) it was 171 °C; in that of `O=C1NCCc2ccc(OCCCCN3CCN(c4cccc5c4CCCC5)CC3)nc2N1`, 185 to 186 °C; in that of `CC(=O)Nc1c(C(=O)c2ccccc2)[nH]c2cc(C)ccc12`, 136 to 138 °C. As for `O=c1c2cccnc2sc(=Nc2ccc(C(F)(F)F)cc2)n1Cc1ccccc1`, the melting point was 126 to 128 °C. Next, `O=C1c2ccccc2C(=O)N1CCCOC(Cl)Cl`: 101 to 103 °C; `CCOC(=O)C1=C(C)N(C(C)=O)C(c2csc(C)n2)=NC1c1ccc(Cl)cc1` (centres undefined): 169 to 171 °C; `CCCCCc1ccc(Oc2cccc(C=C3SC(=S)NC3=O)c2)cc1`: 125 to 127 °C.

In turn, `Fc1ccc(-n2c(CCl)csc2=S)c(F)c1F` came in with a melting point of 127 to 130 °C.

In turn, `Cc1cn(-c2cccc(C(F)(F)F)c2)nc(-c2ccnn2-c2ccccc2)c1=O` gave a melting point of 147 to 150 °C. Regarding `OCC(O)Cc1ccccc1OCc1ccc2ccccc2c1` (centres undefined), the melting point was in the range of 119 to 120 °C. In the case of `CN(C=O)C1CCC(=O)c2ccccc21` (single isomer, unassigned; (+)) it was 92 to 93 °C; in that of `Cc1cc(C)n(C)c1C(=O)c1cccnc1`, 195 to 197 °C. Next, `O=c1[nH]c(=S)[nH]cc1Cc1cnc2ccccc2c1`: 290 to 292 °C; `CCC(C(C)C)C(CN)CC(=O)O` (centres undefined): 170 to 180 °C; `Clc1ccc(Nc2cncc(-n3cccn3)n2)cc1`: 155 to 157 °C.

With `CCCCCCCCCCCCCCCCn1c(-c2ccc(Cl)c(N)c2)nc2ccccc21`, the melting point lay in the range of 162 to 163 °C. Next, `COc1ccc(N(N)Cc2ccc(Cl)cc2)cc1`: 55 °C; `Cc1c(NC(=O)c2ccc(OC[C@@H]3CCCO3)cc2)ccc2[nH]c(CNC3CCCC3)cc12`: 191 to 192 °C; `COc1ccc(C(=O)N(C)c2ccc(C(=O)O)cc2)cc1`: 157 to 160 °C. In the case of `COc1ccc2ccccc2c1CN1CCC(=O)C(C(c2ccc(F)cc2)c2ccc(F)cc2)C1` (centres undefined) it was 125 to 126 °C; in that of `COc1cc(OC)c2c(=O)[nH]c(-c3cc(C)c(OCCN4CCCC4)c(C)c3)nc2n1`, 228 to 230 °C; in that of `COc1cc(C(=O)c2cccnc2)ccc1O`, 150 to 151 °C.

For `O=C(NCc1ccccn1)c1cc(OCC(F)(F)F)ccc1O`, the melting point lay within 143 to 145 °C.
